Experiments:
[1] = test system: NOD/LtJ T cells; details: in conjunction with SDF-1α; cited from earlier work
[2] = test system: human CD3 T cell; assay: Shear mediated CD3 T cell detachment from fresh frozen human pancreas tissue; format: cell-based; details: SDF-1α pretreatment, physiological shear stress
Text: FIG. 3 is a line graph showing non-diabetic human CD3 T cell shear mediated detachment from fresh frozen human pancreas tissue with or without SDF-1 pretreatment.
FIG. 4 is a line graph showing T1D human CD3 T cell detachment from fresh frozen human pancreas tissue with or without SDF-1 pretreatment. 3 non-diabetic and 3 T1D subjects <1 yr diagnosis were used for T cell isolations. *p<0.01 w/o vs with SDF-1 treatment.
SDF-1α stimulates diabetogenic T cell chemorepulsion: a novel mechanism for potential therapeutic intervention in T1D. Chemokines may be differentially expressed in T1D, which play a role in leukocyte infiltration and adhesion. SDF-1α plays a key role in leukocyte adhesion by activating leukocyte integrins to higher affinity state that promotes their clustering. Due to this effect, SDF-1α has been viewed as a universally potent chemoattractant for leukocyte recruitment at low nanomolar concentrations. However, the inventors discovered novel mechanisms of autoimmune T cell chemorepulsion responses in autoimmune NOD/LtJ diabetic mice and in human T1D T cells at SDF-1α concentrations ranging from 1-100 nM.

[3] = test system: NOD/LtJ CD3 T cells; assay: Hydrodynamic shear detachment assay of T cells off TNF-α activated islet endothelial cells; format: cell-based, mouse
Text: T cell Robo-1 expression governs SDF-1 mediated detachment: The inventors examined whether Robo-1 immuno-neutralization could affect SDF-1α mediated chemorepulsion of NOD/LtJ CD3 T cells. FIGS. 5-7 show results from hydrodynamic shear detachment assays of T cells off of TNF-α activated islet endothelial cells. FIG. 5 illustration indicates molecular events. FIGS. 6 and 7 illustrate the effect of Robo-1 antibody on T cell detachment at low and higher shear rates (1 and 2.5 dyne/cm^2, respectively).

[4] = test system: NOD/LtJ CD3 T cell; assay: Shear mediated detachment from parallel plate flow chambers coated with recombinant Fc chimera ICAM-1 and VCAM-1; format: cell-based, mouse; details: SDF-1 (250 ng/ml) without Slit-2; FIG. 13
Method: FIG. 13 is a bar graph showing NOD CD3 T cell shear detachment at 1 dyne/cm^2 to adhesion molecules with SDF-1 (250 ng/ml) ±Slit-2 (20 μg/ml). *p<0.05 between indicated comparisons.
FIG. 14 is a bar graph showing NOD CD3 T cell shear detachment at 2.5 dyne/cm^2 to adhesion molecules with SDF-1 (250 ng/ml) ±Slit-2 (20 μg/ml). *p<0.05 between indicated comparisons.
Slit-2 peptide stimulates SDF-1 mediated NOD/LtJ T cell detachment: The inventors next examined whether Slit2 engagement of NOD/LtJ T cell Robo-1 could facilitate SDF-1 mediated chemorepulsion. To study this in an unambiguous way, recombinant Fc chimera endothelial cell adhesion molecules ICAM-1 and VCAM-1 was used to coat the surface of parallel plate flow chambers with or without SDF-1α to precisely control the density and presentation of adhesion molecules and chemokine for adhesive interactions.

[5] = test system: NOD CD3 T cell; assay: CD3 T cell adhesion to TNF-α activated islet microvascular endothelial cells; format: cell-based, mouse; details: SDF-1α 50 ng/ml; NOD compared to NON or C57 T cells; FIG. 2
[6] = test system: NOD mice; details: inhibition of CXCR4 activity; cited from earlier work

For “LNSLVLYGN [LRR-9, Slit-2 peptide containing LRR domain]”, the “attachment of NOD/LtJ T cells from recombinant endothelial cell adhesion molecules” value (shortened to “attachment of NOD/LtJ T cells”) [1] is listed as “can inhibit attachment”.

For “LRRIDLSNN [LRR-8, Slit-2 peptide containing LRR domain]”, the “attachment of NOD/LtJ T cells” value [1] is given as “can inhibit attachment”.

With “SDF-1α: chemokine, ligand of CXCR4, used to treat T cells or coat flow chambers (AYWKENKEQ)” the “human T1D T cell detachment from fresh human pancreas tissue” value ([2]; T1D subjects, FIG. 4) was “selectively stimulated human T1D T cell detachment”, the “T cell detachment of non-T1D subjects from fresh human pancreas tissue” value ([2]; non-diabetic subjects, FIG. 3) was “not T cell detachment of non-T1D subjects” and the “NOD T cell shear detachment” value ([3]; 1 dyne/cm^2, FIG. 6) was “stimulates NOD T cell shear detachment”. The “NOD T cell shear detachment” value ([3]; 2.5 dynes/cm^2, FIG. 7) was “stimulates NOD T cell shear detachment”, the “NOD/LtJ CD3 T cell shear mediated detachment from ICAM-1 and VCAM-1” value [4] was “even more resistant to shear detachment” and the “NOD CD3 T cell adhesion to TNF-α activated islet endothelial cells” value [5] was “selectively prevents NOD CD3 T cell adhesion”.

For “LQLLLLNAN [LRR-10, Slit-2 peptide containing LRR domain]”, the “attachment of NOD/LtJ T cells” value [1] is listed as “can inhibit attachment”.

For c1cc(CN2CCCNCCNCCCNCC2)ccc1CN1CCCNCCNCCCNCC1 [AMD3100], the “adoptive transfer of diabetes” value [6] is given as “exacerbated adoptive transfer of diabetes”.

For “LNLLSLYDN [LRR-11, Slit-2 peptide containing LRR domain]”, the “attachment of NOD/LtJ T cells” value [1] is listed as “can inhibit attachment”.

For “TITEIRLEQN [LRR-7, Slit-2 peptide containing LRR domain]”, the “attachment of NOD/LtJ T cells” value [1] is listed as “can inhibit attachment”.

— patent US20200138966A1, “BIFUNCTIONAL SMALL PEPTIDE FOR AUTOIMMUNE DIABETES” (Board of Supervisors of Louisiana State University and …, priority 2017, published 2020)
